Experimental findings from publication PMC11484942, “Rumicidins are a family of mammalian host-defense peptides plugging the 70S ribosome exit tunnel” (Nature Communications, 2024) are described below.

Ends that are not written are not given here. A value given as a limit tells only on which side of the number the result lay.

For data set [1], the system named is E. coli 1057 R2 (rpoS^Q3stop, macB^N470D). Conditions: MHB + 0.9% NaCl. A digest of the protocol:
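Broth microdilution (CLSI-based) used 10^6 CFU/mL mid-log cells in MHB with or without added NaCl, and peptides serially diluted in 0.1% BSA at 37 °C. Resistance induction used daily serial passage from sub-MIC wells, followed by 3 drug-free passages before the final MIC.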

For a further data set, the system named is S. aureus ATCC 29213. The data set is classed as cell-based, Staphylococcus aureus. Conditions: ATCC 29213, 24 h. The protocol:
(§1) The reduction of resazurin to resorufin was recorded.

Data set [2] deals with Proteus mirabilis XDR CI 3423. The format is cell-based. Particulars: XDR CI 3423, 24 h. The procedure:
as §1

The subject of data set [3] is Mycobacterium smegmatis mc(2)155. The data set is classed as cell-based. Particulars: Mycobacterium mc(2)155, 24 h. The protocol:
as §1

The test system of the next data set is P. aeruginosa ATCC 27853. The format is cell-based, Pseudomonas aeruginosa. Conditions: ATCC 27853, 24 h. The procedure:
as §1

The subject of a further data set is M. luteus B-1314. The format is cell-based, Micrococcus luteus. Particulars: B-1314, 24 h. The procedure: as §1
The next data set deals with E. cloacae XDR CI 4172. The data set is classed as cell-based, Enterobacter cloacae. Conditions: XDR CI 4172, 24 h. The protocol:
as §1

The subject of the next data set is HaCaT (keratinocytes). Briefly: MTT cytotoxicity. The data set is classed as cell-based, human. The protocol: (§2) Hemolytic activity of the peptides was tested against the fresh suspension of human red blood cells (hRBC) using the hemoglobin release assay as described previously. Two experiments were performed with the hRBC from blood samples collected from healthy donors by certified medical personnel upon informed written consent. All procedures were approved by the Ethics Committee of the Institute of Experimental Medicine (protocol 1/20 of 2/27/2020) and comply with the ethical principles of the Declaration of Helsinki. The quantitative data were represented as average means with standard deviations. The colorimetric 3-(4,5-dimethylthiazol-2-yl)-2,5-diphenyltetrazolium bromide (MTT) dye reduction assay was used to determine cytotoxicity of the peptides against human keratinocyte cell line (HaCaT) and transformed human embryonic kidney cells (HEK293T). Both cell lines were purchased from American Type Culture Collection (ATCC). 10^4 cells per well in Dulbecco’s modified Eagle’s medium (DMEM/F12) supplemented with 10% fetal bovine serum (FBS, Invitrogen) were placed into 96-well plates and then cultured in the CO2-incubator (5% CO2, 37 °C). After the media were removed, the peptides were dissolved in 100 µL of the same medium and added to cell cultures at different final concentrations. 20 h later, 20 μL of MTT (5 mg/mL, Sigma) was added to each well, and the plates were incubated for 4 h at 37 °C. Then, the media were discarded and 100 µL DMSO-isopropanol mixture at a ratio of 1:1 (v/v) was added to each well to dissolve the crystallized formazan. The absorbance at 570 nm was measured by a microplate reader AF2200 (Eppendorf). An optical density in the wells containing cells cultured without the peptides was assumed to represent 100% cell viability. Two independent experiments were performed for each peptide.

Data set [4] has as its system HEK293T (transformed embryonic kidney cells). Nature of the data set: MTT cytotoxicity. The data set is classed as cell-based, human. Conditions: mean. The procedure:
as §2

The test system of data set [5] is E. coli ATCC 25922. The data set is classed as cell-based, Escherichia coli. Conditions: ATCC 25922, 24 h. The protocol: as §1
Data set [6] concerns human red blood cells (hRBC). Nature of the data set: Hemolysis (hemoglobin release assay). The data set is classed as cell-based. Particulars: mean. The protocol:
as §2

The subject of data set [7] is E. coli ATCC 25922. Briefly: Systemic septicemia infection mouse model. The format is in vivo, BALB/c mice. Conditions: 10 mg/kg IP once (1 h post-infection); n = 5. The protocol:
All animal studies were performed at the State Research Center for Applied Microbiology & Biotechnology (SRCAMB) in Obolensk (Russia), approved by the Institutional Bioethics Committee of the SRCAMB (Animal Research Protocol #VP-2022/1) and performed according to the Russian Federal rules and Directive 2010/63/EU of the European Parliament and of the Council. Experiments were performed with female eight- to ten-week-old BALB/c mice (“Andreevka” laboratory animal nursery FMBA, Russia). The animals were housed in groups of 5 in polycarbonate cages, and the following housing conditions were used: 12/12 h dark/light cycle, ambient temperature of 20 ÷ 22 °C, 50% humidity. Food and water were provided ad libitum. In vivo efficacy of rumicidins was tested in the mouse septicemia model induced by E. coli ATCC 25922. Mice were infected with 0.5 mL of bacterial suspension (1 × 10^6 CFU per animal) in saline supplemented with 2.5% mucin (w/v) via intraperitoneal (IP) injection. A total of 4 groups with 5 animals were used. […] The second group received saline (as a vehicle control) and administered IP once (1 h post-infection). Two other groups received rumicidin-1 or rumicidin-3 each administered IP three times (1, 4, and 8 h post-infection) at a dose of 10 mg/kg or of 5 mg/kg, respectively. Survival was monitored for 7 days. After that survived animals were euthanized by CO2 asphyxiation. […]

One may read the MIC as the lowest concentration that inhibits growth of the organism. Turning to RRRPRPPYLPRPRPPPFFPPRL [PR-39[1-22]], in data set [1], the MIC worked out at 32 µM. Further, the “MIC S. aureus ATCC 29213” value against S. aureus ATCC 29213 is > 32 µM. Moreover, the “MIC Proteus mirabilis XDR CI 3423” value in data set [2] was > 32 µM. In addition, in data set [3], the “MICs depending on the test medium” value was in the range of 8 to 16 µM and the “Minimum inhibitory concentration (MIC)” value is 8 µM. Also, the “MIC P. aeruginosa ATCC 27853” value against P. aeruginosa ATCC 27853 was > 32 µM. Moreover, the “MIC M. luteus B-1314” value in the data set on M. luteus B-1314 was > 32 µM.
For the compound RRIRPRPPRLPRPRPRPLPFPR [Bac7[1-22]], the “MIC E. cloacae XDR CI 4172” value with E. cloacae XDR CI 4172 stood at 1 µM. The minimum inhibitory concentration (MIC) in data set [1] was 32 µM. Moreover, the “MIC S. aureus ATCC 29213” value in the data set with S. aureus ATCC 29213 is > 32 µM. The HaCaT cell viability came out at 99.202% with HaCaT (keratinocytes) (1 µM); 105.318% in the data set on HaCaT (keratinocytes) (2 µM); 103.256% in the data set on HaCaT (keratinocytes) (4 µM); 103.504% in the data set with HaCaT (keratinocytes) (8 µM); 102.717% in the data set on HaCaT (keratinocytes) (16 µM); 102.854% in the data set on HaCaT (keratinocytes) (32 µM). Further, in the data set on HaCaT (keratinocytes) (64 µM), the HaCaT cell viability is 101.039%. Also, the HEK293T cell viability in data set [4] (1 µM) is recorded as 111.372%; in [4] (2 µM), 111.629%; in data set [4] (4 µM), 112.981%; in data set [4] (8 µM), 107.36%; in data set [4] (16 µM) it was 102.824%; in data set [4] (32 µM) it was 100.41%. The HEK293T cell viability in data set [4] (64 µM) is given as 98.194%. Further, the “MIC E. coli ATCC 25922” value in the data set on E. coli ATCC 25922 [5] was 1 µM. Further, the Hemolysis is 0.017% in data set [6] (0.25 µM); 0.093% in data set [6] (0.5 µM); 0.134% in [6] (1 µM); 0.206% in data set [6] (2 µM); 0.371% in [6] (4 µM); 0.43% in data set [6] (8 µM). Also, the Hemolysis in [6] (16 µM) was 0.525%; in data set [6] (32 µM) it was 0.835%; in data set [6] (64 µM) it was 1.043%.
Consider `O=C(O)c1cn(C2CC2)c2cc(N3CCNCC3)c(F)cc2c1=O` [Ciprofloxacin], for which the survival result in the data set on E. coli ATCC 25922 [7] was “survival of all mice”.
